# Experimental data: patent US20110229559A1, “Drug Release From Nanoparticle-Coated Capsules” (University of South Australia, priority 2006, published 2011)
# Assays:
# [1] = type: physicochemical
# Experimental: FIG. 10 is a graph showing DBP release profiles in 900 ml MQ water: pure DBP added: 1.1 mg/100 ml and DBP 0.1% wt in PDMS emulsion droplets (φ=0.01), where ⋄ bare liquid PDMS droplets; □ pure DBP; Δ pure DBP with hydrophilic silica nanoparticles; ◯ pure DBP with hydrophobic silica nanoparticles; * PDMS droplets coated by hydrophilic silica (10^−2 M NaCl); x PDMS droplets coated by hydrophobic silica nanoparticles (10^−4 M NaCl); + PDMS droplets coated by hydrophobic silica nanoparticles (10^−1 M NaCl); the dotted line corresponds to the maximal DBP concentration that can be achieved in the dissolution medium;
# FIG. 11 is a graph of DBP release profiles in 900 ml MQ water, pure DBP added: 2.8 mg/100 ml and DBP (0.25% wt) in PDMS emulsion droplets (φ=0.01): ⋄ bare liquid PDMS droplets; □ pure DBP; Δ pure DBP with hydrophilic silica nanoparticles; ◯ pure DBP with hydrophobic silica nanoparticles; * PDMS droplets coated by hydrophilic silica nanoparticles (10^−2 M NaCl); x PDMS droplets coated by hydrophobic silica nanoparticles (10^−4 M NaCl); + PDMS droplets coated by hydrophobic silica nanoparticles (10-1 M NaCl); dotted line correspond to the maximal DBP concentration that can be achieved in the dissolution medium;
# However, the dissolution rate is increased when DBP is incorporated into PDMS emulsion droplets.
# Similar trends of increased solubility rate occur when the total DBP concentration is well above the solubility limit (2.8 mg/100 ml) (FIG. 11). The observed increase in solubility of DBP is even more evident giving rise to supersaturated solutions. The intensity and duration of the “supersaturation” effect is much more pronounced for hydrophobic silica coated droplets. For hydrophilic particles, the peak in the soluble DBP concentration is at a maximum after 2 hours and then subsequently the soluble amount of DBP decreases within the next 6 hours and eventually reduces back to the solubility limit (FIG. 11).
# [2] = DBP release from cross-linked PDMS emulsion droplets (bare or silica nanoparticle-coated) into MilliQ water; type: physicochemical
# Experimental: (§1) FIG. 12 is a graph showing DBP release profiles from cross-linked PDMS emulsion droplets (φ=0.01) containing 0.025 wt % DBP, 900 ml MQ water as dissolution medium, where ⋄ bare PDMS droplets and PDMS droplets coated by hydrophobic silica nanoparticles: […]10^−4M NaCl; Δ10^−3M NaCl; ◯10^−1 M NaCl;
# as §1, with “FIG. 13” for “FIG. 12”, “showing Ln ([…]) versus time for drug” for “showing DBP”, “where ◯” for “where ⋄”, “silica nanoparticles;” for “silica nanoparticles:”
# as §1, with “15” for “12”, “0.25” for “0.025”, “DBP in emulsions,” for “DBP,”, “[…]10^−4 M” for “[…]10^−4M”, “Δ10^−3 M” for “Δ10^−3M”
# (§2) DBP was incorporated into the PDMS droplets during the synthesis step outlined in Example 3. A modification of the method reported by Obey, T. M. and Vincent, B., (1994), Journal of Colloid Interface Science, 163:454-463 and Goller, M. I. et al., (1997), Physiochemical and Engineering Aspects, 123-124 and 183-193 (without dialysis) was employed (herein incorporated by reference). PDMS droplets were prepared according to Example 3. A further batch of cross-linked PDMS droplets were prepared using the same procedure as for liquid droplets except that the mixtures of monomer and cross-linking trimer DEDMS:TEMS (tritethoxymethylsilane) at ratios 1:0.1-1 were used instead of pure monomer. The cross-linking level of the droplets prepared ranged from 0, 10, 20, 30, 40 to 50%.
# (§3) Bare and nanoparticle-coated droplet samples were prepared by mixing 10 ml of the prepared emulsions with 10 ml of sonicated MilliQ water and silica aqueous dispersions, respectively. Salt concentrations were adjusted from between 10^−4 to 10^−1 M NaCl in order to control the nanoparticle layer structure as described above.
# Cross-linked droplets (40% cross-linked) were chosen for study due to the fact that DBP partitioning coefficients were the highest at this cross-linking level, i.e. entrapment of DBP was the highest. […] Hydrophilic silica nanoparticle-coated capsules (created at 10^−2 M NaCl) and permeable, hydrophobic silica nanoparticle-coated capsules (created at 10^−4 M NaCl) have no effect on drug dissolution as opposed to semi-permeable hydrophilic/hydrophobic silica nanoparticle coatings around capsules (created at 10^−3-10^−1 M NaCl).
# The rate limiting step for drug release from bare cross-linked droplets is diffusion through the internal matrix, therefore the diffusion-limited model is applicable (FIG. 12). Good linear fits were obtained for the first 120 minutes of release (FIG. 13). Calculated diffusion coefficients are presented in the table of FIG. 14 and are in agreement with typical values for drug diffusion in gels (e.g. 4.8 to 6.5 nm^2s^−1).
# [3] = DBP release from liquid PDMS emulsion droplets (bare or silica nanoparticle-coated) into MilliQ water, sink conditions; type: physicochemical; details: for release rate constant (interfacial transport): hydrophobic nanoparticle-coated liquid PDMS droplets; for activation energy (Ea) for crossing the interfacial barrier: liquid PDMS droplets, Arrhenius, 22-37° C.
# Experimental: FIG. 7 is a graph of Ln (1−Mt/M0) versus time for DBP release profiles from hydrophobic nanoparticle-coated liquid PDMS emulsion (φ=0.01) containing 0.025 wt % DBP, 900 ml MQ water as dissolution medium, where […]10^−3M NaCl; ⋄10^−2 M NaCl; Δ10^−1 M NaCl;
# FIG. 8 is a graph showing Arrhenius plots for DBP release profiles from hydrophobic coated liquid PDMS emulsion droplets (φ=0.01) containing 0.025 wt % DBP, 900 ml MQ water as dissolution medium, where […]10^−1 M NaCl; ⋄10^−3M NaCl;
# In experiments, dibutylphthalate (DBP) was chosen as a model drug because it is a liquid that is poorly soluble but readily miscible with PDMS. Release profiles of DBP were determined from both bare droplets (i.e. droplets not coated with nanoparticles) and coated droplets (i.e. droplets coated with hydrophilic particles and from droplets coated with hydrophobic particles).
# as §2, §3
# The release rate is even more retarded in the presence of a thick interfacial particle wall prepared at 10^−1 M NaCl. Thus, depending on salt concentration, hydrophobic silica nanoparticle coatings can provide a permeable or semi-permeable barrier.
# The activation energy for crossing the interfacial barrier was determined using an Arrhenius approach. Release profiles for droplets coated at 10^−3 M NaCl and 10^−1 M NaCl were determined at four temperatures: 22° C., 27° C., 32° C. and 37° C. Kinetic rate constants were determined for each temperature from equation A above and from the plots Ln k vs. 1/T (FIG. 8) the activation energies (Ea) were calculated:
# Aqueous solutions containing 1% diethoxy-dimethyl-silane (DEDMS), which was previously mixed with 0, 0.025, 0.1 and 0.25 wt % DBP in a nitrogen gas atmosphere, and 0.1% ammonia were sealed under nitrogen gas in a 250 ml reaction vessel, shaken vigorously for 30 seconds, and than tumbled at 30 rpm and 25° C. for 18 hours.
structure (smiles),measurement,setting,value
"CCCCOC(=O)c1ccccc1C(=O)OCCCC [DBP, dibutylphthalate]",time after which amount in solution reduces to the normal solubility limit (duration of supersaturation),[1],10 h
same,time of peak soluble DBP concentration,[1],2 h
same,time to achieve the equilibrium solubility level,[1],approximately 20 hours
same,activation energy for drug diffusion,[2]; bare cross-linked droplets,127±15 kJmol^-1
same,time for release process to reach equilibrium,"[2]; cross-linked PDMS droplets, 0.025 wt % DBP",approximately 2 hours
same,activation energy for drug diffusion,"[2]; cross-linked droplets with hydrophobic silica nanoparticle coating, first value given",155 kJmol^-1
same,diffusion coefficient,"[2]; cross-linked droplets with hydrophobic silica nanoparticle coating, first value given (salt level not stated, presumably 10^-3 M NaCl)",3.2 nm^2s^-1
same,activation energy for drug diffusion,"[2]; cross-linked droplets with hydrophobic silica nanoparticle coating, second value given",177±25 kJmol^-1
same,diffusion coefficient,"[2]; cross-linked droplets with hydrophobic silica nanoparticle coating, second value given (salt level not stated, presumably 10^-1 M NaCl)",2.4±0.5 nm^2s^-1
same,diffusion coefficient,"[2]; cross-linked droplets, DBP concentration above the solubility limit (0.25 wt %), first 90 minutes",3.5±0.5 nm^2s^-1
same,amount of DBP loaded still remaining in the droplets after 2 hours,"[2]; cross-linked droplets, bare and coated with permeable silica nanoparticle coatings at 10^-4 M NaCl",25%
same,amount of DBP loaded still remaining in the droplets after 2 hours,"[2]; cross-linked droplets, silica coating at 10^-1 M NaCl",46%
same,amount of DBP loaded still remaining in the droplets after 2 hours,"[2]; cross-linked droplets, silica coating at 10^-3 M NaCl",37%
same,drug release from within the bare droplets,"[3]; bare liquid PDMS droplets, drug concentration significantly below its solubility limit in water",rapid and complete
same,release rate constant (interfacial transport),[3]; at 10^-1 M NaCl,0.05 nm^2s^-1
same,release rate constant (interfacial transport),[3]; at 10^-3 and 10^-2 M NaCl,0.3 nm^2s^-1
same,half release time,"[3]; liquid PDMS droplets coated with hydrophobic silica nanoparticles at 10^-3 and 10^-2 M NaCl, 0.025 wt % DBP",approximately 18 hours
same,activation energy (Ea) for crossing the interfacial barrier,[3]; nanoparticle layer prepared at 10^-1 M NaCl,630 kJmol^-1
same,activation energy (Ea) for crossing the interfacial barrier,[3]; nanoparticle layer prepared at 10^-3 M NaCl,580 kJmol^-1
